# In patent US7138361B2, “Herbicidal heterocycles” (E. I. du Pont de Nemours and Company, priority 2000, dated 2006):
# How the values were obtained:
# Format in all cases: in vivo
# [1] = tested on: Surinam grass (Brachiaria decumbens); assay: Test B postemergence; settings: 13 to 15 days
# In short: (§1)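 Ratings on a 0 to 100 visual scale (100 complete control) compare treated plants with controls 13 to 15 days after application. Treatments were pre- or postemergence sprays of compound in non-phytotoxic solvent with surfactant.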
# [2] = tested on: barnyardgrass (Echinochloa crus-galli); assay: Test B postemergence; settings: 13 to 15 days
# In short: as §1
# [3] = tested on: blackgrass (Alopecurus myosuroides); assay: Test B postemergence; settings: 13 to 15 days
# In short: as §1
# [4] = tested on: cocklebur (Xanthium strumarium); assay: Test B postemergence; settings: 13 to 15 days
# In short: as §1
# corn (Zea mays) [5] = assay: Test B postemergence; settings: 13 to 15 days
# In short: as §1
# [6] = tested on: crabgrass (Digitaria sanguinalis); assay: Test B postemergence; settings: 13 to 15 days
# In short: as §1
# [7] = tested on: giant foxtail (Setaria faberii); assay: Test B postemergence; settings: 13 to 15 days
# In short: as §1
# [8] = tested on: lambsquarters (Chenopodium album); assay: Test B postemergence; settings: 13 to 15 days
# In short: as §1
# [9] = tested on: morning glory (Ipomoea hederacea); assay: Test B postemergence; settings: 13 to 15 days
# In short: as §1
# [10] = tested on: pigweed (Amaranthus retroflexus); assay: Test B postemergence; settings: 13 to 15 days
# In short: as §1
# [11] = tested on: velvetleaf (Abutilon theophrasti); assay: Test B postemergence; settings: 13 to 15 days
# In short: as §1
# [12] = tested on: wheat (Triticum aestivum); assay: Test B postemergence; settings: 13 to 15 days
# In short: as §1
# wild oat (Avena fatua) = assay: Test B postemergence; settings: 13 to 15 days
# In short: as §1
# [13] = tested on: Surinam grass (Brachiaria decumbens); assay: Test B preemergence
# In short: as §1
# [14] = tested on: barnyardgrass (Echinochloa crus-galli); assay: Test B preemergence
# In short: as §1
# [15] = tested on: cocklebur (Xanthium strumarium); assay: Test B preemergence
# In short: as §1
# corn (Zea mays) [16] = assay: Test B preemergence
# In short: as §1
# [17] = tested on: crabgrass (Digitaria sanguinalis); assay: Test B preemergence
# In short: as §1
# [18] = tested on: giant foxtail (Setaria faberii); assay: Test B preemergence
# In short: as §1
# [19] = tested on: lambsquarters (Chenopodium album); assay: Test B preemergence
# In short: as §1
# [20] = tested on: morning glory (Ipomoea hederacea); assay: Test B preemergence
# In short: as §1
# [21] = tested on: pigweed (Amaranthus retroflexus); assay: Test B preemergence
# In short: as §1
# rice (Oryza saliva) = assay: Test B preemergence
# In short: as §1
# [22] = tested on: velvetleaf (Abutilon theophrasti); assay: Test B preemergence
# In short: as §1
# [23] = tested on: smallflower flatsedge (Cyperus difformis); assay: Test C flooded paddy test; settings: for Flatsedge plant response rating: Flooded Paddy, scale 0 to 100, 0 no effect, 100 complete control; for Plant response rating, Flatsedge: flooded paddy test, scale 0 to 100 (0 no effect, 100 complete control)
# In short: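 Flooded paddy, 2-leaf stage at treatment. Readout: visual % control vs untreated, 0–100, at 12–14 d in greenhouse.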
# [24] = Rate 125 g/ha, scale 0 (no effect) to 100 (complete control)
# [25] = Rate 500 g/ha, scale 0 to 100, 0 is no effect, 100 is complete control
# [26] = Preemergence, Rate 500 g/ha, scale 0 to 100, 0 no effect, 100 complete control
# [27] = preemergence, Rate 125 g/ha, scale of 0 to 100 where 0 is no effect and 100 is complete control, 13 to 15 days
compound,measurement,setting,value
CCC(CC)c1ccn(C2OCN(c3cccc(OC(F)(F)F)c3)C2=O)n1 (stereo not drawn) [Compound 68],"Plant response rating, Surinam grass",[1]; [24],20
same,"Plant response rating, Surinam grass",[1]; [25],30
same,"Plant response rating, Barnyardgrass",[2]; [24],90
same,"Plant response rating, Barnyardgrass",[2]; [25],100
same,"Plant response rating, Blackgrass",[3]; [24],0
same,"Plant response rating, Blackgrass",[3]; [25],0
same,"Plant response rating, Cocklebur",[4]; [24],50
same,"Plant response rating, Cocklebur",[4]; [25],80
same,"Plant response rating, Corn",corn (Zea mays) [5]; [24],0
same,"Plant response rating, Corn",corn (Zea mays) [5]; [25],0
same,"Plant response rating, Crabgrass",[6]; [24],90
same,"Plant response rating, Crabgrass",[6]; [25],100
same,"Plant response rating, Foxtail, Giant",[7]; [24],20
same,"Plant response rating, Foxtail, Giant",[7]; [25],40
same,"Plant response rating, Lambsquarters",[8]; [24],100
same,"Plant response rating, Lambsquarters",[8]; [25],100
same,"Plant response rating, Morningglory",[9]; [24],0
same,"Plant response rating, Morningglory",[9]; [25],0
same,"Plant response rating, Pigweed",[10]; [24],0
same,"Plant response rating, Pigweed",[10]; [25],0
same,"Plant response rating, Velvetleaf",[11]; [24],0
same,"Plant response rating, Velvetleaf",[11]; [25],20
same,"Plant response rating, Wheat",[12]; [24],0
same,"Plant response rating, Wheat",[12]; [25],0
same,"Plant response rating, Wild Oat",wild oat (Avena fatua); [24],0
same,"Plant response rating, Wild Oat",wild oat (Avena fatua); [25],0
same,"Plant response rating, Surinam grass",[13]; [26],0
same,"Plant response rating, Surinam grass",[13]; [27],0
same,"Plant response rating, Barnyardgrass",[14]; [26],100
same,"Plant response rating, Barnyardgrass",[14]; [27],100
same,"Plant response rating, Cocklebur",[15]; [26],0
same,"Plant response rating, Cocklebur",[15]; [27],0
same,"Plant response rating, Corn",corn (Zea mays) [16]; [26],20
same,"Plant response rating, Corn",corn (Zea mays) [16]; [27],0
same,"Plant response rating, Crabgrass",[17]; [26],20
same,"Plant response rating, Foxtail, Giant",[18]; [26],20
same,"Plant response rating, Lambsquarters",[19]; [26],100
same,"Plant response rating, Lambsquarters",[19]; [27],100
same,"Plant response rating, Morningglory",[20]; [26],0
same,"Plant response rating, Morningglory",[20]; [27],0
same,"Plant response rating, Pigweed",[21]; [26],100
same,"Plant response rating, Pigweed",[21]; [27],100
same,"Plant response rating, Rice",rice (Oryza saliva); [26],30
same,"Plant response rating, Rice",rice (Oryza saliva); [27],0
same,"Plant response rating, Velvetleaf",[22]; [26],0
same,"Plant response rating, Velvetleaf",[22]; [27],0
same,Flatsedge plant response rating,[23]; Rate 250 g/ha,100
same,Flatsedge plant response rating,[23]; Rate 500 g/ha,100
same,"Plant response rating, Flatsedge",[23]; Rate 62 g/ha,100
same,"Plant response rating, Flatsedge",[23]; Rate 125 g/ha,100
CC1(c2ccn(C3OCN(c4cccc(OC(F)(F)F)c4)C3=O)n2)CC1 (stereo not drawn) [Compound 69],"Plant response rating, Surinam grass",[1]; [24],0
same,"Plant response rating, Surinam grass",[1]; [25],0
same,"Plant response rating, Barnyardgrass",[2]; [24],0
same,"Plant response rating, Barnyardgrass",[2]; [25],90
same,"Plant response rating, Blackgrass",[3]; [24],70
same,"Plant response rating, Blackgrass",[3]; [25],70
same,"Plant response rating, Cocklebur",[4]; [24],0
same,"Plant response rating, Cocklebur",[4]; [25],20
same,"Plant response rating, Corn",corn (Zea mays) [5]; [24],0
same,"Plant response rating, Corn",corn (Zea mays) [5]; [25],0
same,"Plant response rating, Crabgrass",[6]; [24],0
same,"Plant response rating, Crabgrass",[6]; [25],30
same,"Plant response rating, Foxtail, Giant",[7]; [24],0
same,"Plant response rating, Foxtail, Giant",[7]; [25],0
same,"Plant response rating, Lambsquarters",[8]; [24],80
same,"Plant response rating, Lambsquarters",[8]; [25],80
same,"Plant response rating, Morningglory",[9]; [24],0
same,"Plant response rating, Morningglory",[9]; [25],0
same,"Plant response rating, Pigweed",[10]; [24],0
same,"Plant response rating, Pigweed",[10]; [25],0
same,"Plant response rating, Velvetleaf",[11]; [24],0
same,"Plant response rating, Velvetleaf",[11]; [25],0
same,"Plant response rating, Wheat",[12]; [24],0
same,"Plant response rating, Wheat",[12]; [25],0
same,"Plant response rating, Wild Oat",wild oat (Avena fatua); [24],0
same,"Plant response rating, Wild Oat",wild oat (Avena fatua); [25],0
same,"Plant response rating, Surinam grass",[13]; [26],20
same,"Plant response rating, Surinam grass",[13]; [27],20
same,"Plant response rating, Barnyardgrass",[14]; [26],40
same,"Plant response rating, Barnyardgrass",[14]; [27],20
same,"Plant response rating, Cocklebur",[15]; [26],20
same,"Plant response rating, Cocklebur",[15]; [27],0
same,"Plant response rating, Corn",corn (Zea mays) [16]; [26],0
same,"Plant response rating, Corn",corn (Zea mays) [16]; [27],0
same,"Plant response rating, Crabgrass",[17]; [26],0
same,"Plant response rating, Crabgrass",[17]; [27],0
same,"Plant response rating, Foxtail, Giant",[18]; [26],0
same,"Plant response rating, Foxtail, Giant",[18]; [27],0
same,"Plant response rating, Lambsquarters",[19]; [26],100
same,"Plant response rating, Lambsquarters",[19]; [27],90
same,"Plant response rating, Morningglory",[20]; [26],0
same,"Plant response rating, Morningglory",[20]; [27],0
same,"Plant response rating, Pigweed",[21]; [26],90
same,"Plant response rating, Pigweed",[21]; [27],60
same,"Plant response rating, Rice",rice (Oryza saliva); [26],0
same,"Plant response rating, Rice",rice (Oryza saliva); [27],0
same,"Plant response rating, Velvetleaf",[22]; [26],0
same,"Plant response rating, Velvetleaf",[22]; [27],0
same,Flatsedge plant response rating,[23]; Rate 250 g/ha,100
same,Flatsedge plant response rating,[23]; Rate 500 g/ha,100
same,"Plant response rating, Flatsedge",[23]; Rate 62 g/ha,100
same,"Plant response rating, Flatsedge",[23]; Rate 125 g/ha,100
